In patent US8110575B2, “Compounds” (Boehringer Ingelheim International GmbH, priority 2007, dated 2012) one finds Ki data, which are given here for 4 compounds.

The assay deals with T1, human CGRP receptor (Homo sapiens, UniProt O60894+Q16602).
T1 construct: SK-N-MC membranes (˜20 μg protein) are incubated for 180 minutes at ambient temperature; endogenous in cells; host or cells: SK-N-MC cells (membrane preparation)
T1 sequence (Q16602 23-461): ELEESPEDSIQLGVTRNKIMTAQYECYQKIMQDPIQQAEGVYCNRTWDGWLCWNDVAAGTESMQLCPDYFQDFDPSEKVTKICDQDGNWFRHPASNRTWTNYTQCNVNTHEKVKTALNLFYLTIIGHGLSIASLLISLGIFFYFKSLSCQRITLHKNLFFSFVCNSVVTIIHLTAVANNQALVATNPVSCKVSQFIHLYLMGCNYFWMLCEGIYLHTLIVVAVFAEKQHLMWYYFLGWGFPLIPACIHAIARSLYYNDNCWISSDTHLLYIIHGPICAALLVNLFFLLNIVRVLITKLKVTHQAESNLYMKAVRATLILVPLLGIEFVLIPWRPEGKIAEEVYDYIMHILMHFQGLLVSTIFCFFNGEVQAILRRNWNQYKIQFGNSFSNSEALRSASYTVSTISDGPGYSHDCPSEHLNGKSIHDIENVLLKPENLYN
T1 sequence (O60894 27-148): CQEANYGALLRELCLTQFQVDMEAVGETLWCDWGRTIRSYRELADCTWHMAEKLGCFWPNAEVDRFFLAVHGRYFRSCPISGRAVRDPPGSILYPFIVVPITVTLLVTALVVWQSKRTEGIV
Description: Binding studies with SK-N-MC cells (expressing the human CGRP receptor). The note with it: SK-N-MC membranes, 125I-iodotyrosyl-CGRP displacement. The procedure:
A. Binding Studies with SK-N-MC Cells (Expressing the Human CGRP Receptor)
SK-N-MC membranes (˜20 μg protein) are incubated for 180 minutes at ambient temperature with 50 pM ^125I-iodotyrosyl-Calcitonin-Gene-Related Peptide and increasing concentrations of the test substances in a total volume of […] (assay buffer: 10 mM tris, 50 mM NaCl, 5 mM MgCl2, 1 mM EDTA, pH=7.4). The incubation is ended by rapid filtration through GF/B-glass fibre filters treated with polyethyleneimine (0.1%) using a cell harvester. The protein-bound radioactivity is measured using a gamma counter. Non-specific binding is defined as the bound radioactivity after the presence of 1 μM BIBN4096BS during incubation.
The concentration binding curves are analysed using computer-aided non-linear curve fitting.
On to `O=C(c1cc(Nc2ccc3c(c2)CC2(C3)C(=O)Nc3ncccc32)ncn1)N1CCc2ccccc21` (stereo not shown) [(1)], for which the affinity, expressed as Ki, was 15 nM.

As to `O=C(c1cc(Nc2ccc3c(c2)CC2(C3)C(=O)Nc3ncccc32)ncn1)N(CC(F)(F)F)c1ccccc1` (stereo not shown) [(6)], the Ki (as a rule, the equilibrium dissociation constant of an inhibitor or competing ligand from its target) came to 120 nM.

Take `CN1C(=O)NC(=O)C12Cc1ccc(Nc3cc(C(=O)N4CCc5ccccc54)ncn3)cc1C2` (stereo not shown) [(9)]: the Ki came out at 132 nM.

`O=C1Nc2ccccc2C2(CCN(c3cc(C(=O)N4CCc5ccccc54)ncn3)CC2)O1` [(3)] gave a Ki of 535 nM.
